From US9273006B2, “Anabolic compounds for treating and preventing bone loss diseases” (SYDDANSK UNIVERSITET, priority 2012, dated 2016)
Where “and” joins values, the source holds several entries; their conditions need not be identical. Equal values may be shown once. Read-outs that look alike come from different tables or passages of the source.

Tests used:
[1] = test system: TGFβ signaling in hMSC; assay: TGFβ signaling, qRT-PCR and western blot; format: cell-based, human; conditions: for effect on H-8 induced Smad2 and Akt phosphorylation: co-treatment with H-8
From the text: (C): Western blot analysis of p-Smad and p-Akt reveled that the enahcing effect of H-8 on osteoblast differentiation of hMSC is mediated through activation of non-canonical TGFβ signaling. (D): SB431542, a selective inhibitor of TGWU activity abolished the enhanced phosphorylation of Akt and smad2 after H-8 treatment.
To investigate the mechanisms of the enhancing effects of H-8 on osteoblast differentiation of hMSC, the present inventors performed a DNA microarray analysis of hMSC-TERT under osteogenic culture conditions, in the presence or absence of the H-8 (25 μM). […] In order to identify the pathway that is primarily regulated by H-8 treatment, phosphorylation of canonical and non-canonical TGFβ signaling components was evaluated 5 minutes and 15 minutes after H-8 treatment. The inventors also evaluated the effect of TGFβ3 treatment on H-8 induced phosphorylation of Smad2 and Akt. […] This observation further confirms that the enhancing effect of H-8 on osteoblast differentiation of hMSC is mediated through regulation of TGFβ signaling.

[2] = biological target: protein kinase C(PKC); conditions: cited from earlier work
[3] = test system: human adipose tissue derived MSC (hAT-MSC); assay: In vitro osteoblast differentiation (ALP activity, alizarin red); format: cell-based
[4] = test system: hMSC implanted in mouse calvarial defect; assay: hMSC survival in vivo, mouse calvarial defect model; conditions: 4 weeks after implantation of treated hMSC
[5] = test system: hMSC; assay: hMSC survival in vitro, western blot of activated Caspase-3; format: cell-based, human; conditions: 25 μM, during osteoblast differentiation
Description: A) H-8 treatment of hMSC (25 μM) during osteoblast differentiation, decreased apoptosis, as shown by western blot analysis of activated Caspase-3.
To investigate the effect of H-8 on hMSC survival in vitro, activation of Caspase-3 was evaluated, using western blot analysis.

[6] = test system: hMSC-TERT implants in SCID/NOD mice; assay: In vivo heterotopic bone formation of hMSC-TERT implanted with HA/TCP
Description: (A) Treatment of hMSC-TERT4 with H-8 (25 μM) for 7 days in vitro enhanced the in vivo heterotopic bone formation ability of the cells. (B) Systemic injection of H-8 at 30 mg/kg/day enhanced the amount of the heterotopic bone formed by hMSC-TERT4 implanted in SCID/NOD mice. (C) Human specific Vimentin staining confirmed that the newly formed heterotopic bone is of human origin. *P≦0.05 (significant difference as compared to vehicle).
To determine the effect of H-8 treatment on the ability of hMSC to form heterotopic bone in vivo, hMSC-TERT were treated with H-8 (25 μM) or vehicle for 7 days, mixed with hydroxyapatite/tricalcium phosphate (HA/TCP) as osteoconductive carrier, and implanted subcutaneously in SCID/NOD mice. […] Human specific vimentin staining confirmed that the newly formed heterotopic bone is of human origin (FIG. 6C).

[7] = test system: human CD14+ mononuclear cells; assay: Osteoclast formation, count of TRAP-positive multinucleated cells; format: cell-based; conditions: 25 μM, day 5 of differentiation
From the text: The present inventors determined the effects of H-8 on osteoclast formation in peripheral blood-derived human CD14+ mononuclear cell cultures.

[8] = test system: hMSC-TERT; assay: In vitro osteoblast differentiation in OIM (ALP activity, alizarin red, qRT-PCR); format: cell-based, human
Description: (§1) F) H-8 enhances ALP activity of hMSC, in the absence of serum.
Adding H-8 (25 μM) to the osteogenic induction media, during 9-days in vitro hMSC osteogenic differentiation, enhanced expression of osteoblastic markers as shown by qRT-PCR analysis. **P≦0.05, ***P≦0.005 (significant difference as compared to vehicle).
H-8 was added (25 μM) to the OIM at different time points during 12-days period.
(§2) In order to confirm the results obtained from the initial screen, the present inventors incubated hMSC-TERT and primary human bone marrow derived MSC (hBMSC) in osteogenic induction medium (OIM) supplemented with H-8 (dose range 1-30 μM) or vehicle. […] To determine the stage of differentiation at which the effect of H-8 was most apparent, the present inventors added H-8 (25 μM) to the OIM at different time points during 12-days period.

[9] = test system: osteoclast; conditions: table 1 of Soerensen et al; cited from earlier work
[10] = test system: hMSC-TERT; assay: Adipocyte differentiation (Oil red O, qRT-PCR of adipogenic markers); format: cell-based, human; conditions: 25 μM in adipogenic induction media; Oil red O day 15, qRT-PCR day 10
Description: To determine the effect of H-8 on adipocyte differentiation of hMSC, H-8 was added (25 μM) to the adipogenic induction media (AIM) of hMSC-TERT.

[11] = biological target: T1, protein kinase G (PKG) (Homo sapiens, UniProt Q13976); conditions: cited from earlier work
T1 sequence (Q13976 1-671): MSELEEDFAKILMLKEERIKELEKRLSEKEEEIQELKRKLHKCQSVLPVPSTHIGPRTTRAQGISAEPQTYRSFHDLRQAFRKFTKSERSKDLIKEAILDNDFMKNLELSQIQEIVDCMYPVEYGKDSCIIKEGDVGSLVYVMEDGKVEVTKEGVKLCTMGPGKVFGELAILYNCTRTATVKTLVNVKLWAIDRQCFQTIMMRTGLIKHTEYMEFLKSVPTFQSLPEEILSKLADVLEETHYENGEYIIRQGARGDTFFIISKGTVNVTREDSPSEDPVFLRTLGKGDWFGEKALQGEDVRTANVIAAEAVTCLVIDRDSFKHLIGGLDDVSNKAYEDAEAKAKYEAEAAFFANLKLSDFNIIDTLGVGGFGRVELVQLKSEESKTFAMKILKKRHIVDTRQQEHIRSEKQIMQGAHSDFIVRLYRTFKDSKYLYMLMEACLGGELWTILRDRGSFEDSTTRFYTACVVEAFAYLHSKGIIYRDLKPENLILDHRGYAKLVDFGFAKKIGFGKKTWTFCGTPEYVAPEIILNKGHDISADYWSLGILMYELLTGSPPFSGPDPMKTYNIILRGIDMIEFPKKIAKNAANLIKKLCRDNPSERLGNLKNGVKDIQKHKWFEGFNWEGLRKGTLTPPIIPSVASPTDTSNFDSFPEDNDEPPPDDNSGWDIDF

[12] = biological target: Myosin Light Chain Kinase (MLCK) (Homo sapiens, UniProt Q15746); conditions: cited from earlier work
[13] = test system: hMSC-TERT
[14] = test system: primary human bone marrow derived MSC (hBMSC); assay: In vitro osteoblast differentiation in OIM (ALP activity, alizarin red); format: cell-based; conditions: dose range 1-30 μM
Description: as §1, §2

[15] = Necropsy after systemic H-8 injection; format: in vivo; conditions: systemic injection 5, 15, 30 mg/kg/day for 4 weeks
[16] = 5 and 15 minutes after treatment
[17] = 1 μM inhibitor in osteogenic inducing media, 6 days after induction, hMSC-TERT
[18] = 10 μM inhibitor in osteogenic inducing media, 6 days after induction, hMSC-TERT

Myosin Light Chain Kinase (MLCK), sequence (Q15746 whole entry): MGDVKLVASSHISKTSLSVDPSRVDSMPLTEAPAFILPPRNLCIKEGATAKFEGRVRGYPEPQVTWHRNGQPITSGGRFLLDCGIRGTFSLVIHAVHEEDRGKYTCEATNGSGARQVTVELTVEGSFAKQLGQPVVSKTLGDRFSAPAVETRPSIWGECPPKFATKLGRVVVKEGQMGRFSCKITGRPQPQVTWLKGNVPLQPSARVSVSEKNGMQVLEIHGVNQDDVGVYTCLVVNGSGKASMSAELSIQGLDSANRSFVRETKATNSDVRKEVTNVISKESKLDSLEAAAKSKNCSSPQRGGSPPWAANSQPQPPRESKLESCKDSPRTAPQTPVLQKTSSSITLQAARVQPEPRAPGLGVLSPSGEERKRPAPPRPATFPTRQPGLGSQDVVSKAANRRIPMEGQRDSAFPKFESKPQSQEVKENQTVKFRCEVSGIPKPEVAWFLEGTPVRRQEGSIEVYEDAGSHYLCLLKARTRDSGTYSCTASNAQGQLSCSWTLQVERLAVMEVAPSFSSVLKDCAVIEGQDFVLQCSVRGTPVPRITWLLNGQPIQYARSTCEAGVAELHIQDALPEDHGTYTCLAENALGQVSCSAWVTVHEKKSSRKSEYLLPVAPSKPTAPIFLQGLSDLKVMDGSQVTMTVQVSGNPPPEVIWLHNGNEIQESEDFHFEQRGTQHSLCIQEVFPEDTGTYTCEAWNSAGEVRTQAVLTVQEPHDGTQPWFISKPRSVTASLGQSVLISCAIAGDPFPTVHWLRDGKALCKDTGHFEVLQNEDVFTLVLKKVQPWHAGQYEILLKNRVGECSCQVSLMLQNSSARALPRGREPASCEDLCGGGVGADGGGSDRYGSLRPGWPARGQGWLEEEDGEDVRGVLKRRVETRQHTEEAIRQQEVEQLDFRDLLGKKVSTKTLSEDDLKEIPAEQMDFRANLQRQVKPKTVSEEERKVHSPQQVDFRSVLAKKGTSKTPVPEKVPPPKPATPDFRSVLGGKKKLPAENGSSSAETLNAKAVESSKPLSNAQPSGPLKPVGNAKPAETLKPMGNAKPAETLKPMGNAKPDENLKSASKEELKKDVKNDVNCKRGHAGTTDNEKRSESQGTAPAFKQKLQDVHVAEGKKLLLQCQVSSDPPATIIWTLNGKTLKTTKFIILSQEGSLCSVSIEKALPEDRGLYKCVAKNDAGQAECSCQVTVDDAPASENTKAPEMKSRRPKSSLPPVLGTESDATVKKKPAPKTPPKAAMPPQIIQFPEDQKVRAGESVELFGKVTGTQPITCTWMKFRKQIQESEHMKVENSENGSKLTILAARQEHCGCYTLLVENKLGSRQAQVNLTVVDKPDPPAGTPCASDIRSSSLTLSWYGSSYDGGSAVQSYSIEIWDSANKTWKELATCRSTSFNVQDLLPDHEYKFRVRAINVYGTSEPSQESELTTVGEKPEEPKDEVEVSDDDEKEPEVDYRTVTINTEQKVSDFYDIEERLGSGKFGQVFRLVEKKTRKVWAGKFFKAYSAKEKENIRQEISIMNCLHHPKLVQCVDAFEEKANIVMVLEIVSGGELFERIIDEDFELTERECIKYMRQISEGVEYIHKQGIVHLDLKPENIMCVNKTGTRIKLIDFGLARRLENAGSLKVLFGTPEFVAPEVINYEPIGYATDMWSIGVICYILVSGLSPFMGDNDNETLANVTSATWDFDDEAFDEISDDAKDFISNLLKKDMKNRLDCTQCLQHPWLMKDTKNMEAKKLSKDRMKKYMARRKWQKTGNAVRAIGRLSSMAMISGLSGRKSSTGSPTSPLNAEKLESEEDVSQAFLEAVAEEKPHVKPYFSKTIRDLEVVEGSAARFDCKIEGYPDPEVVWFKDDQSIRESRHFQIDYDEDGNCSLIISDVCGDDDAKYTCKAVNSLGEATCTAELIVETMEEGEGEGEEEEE

Molecule: CNCCNS(=O)(=O)c1cccc2cnccc12 [H-8, N-[2-(methylamino)ethyl]-5-isoquinolinesulfonamide]
- Akt phosphorylation (western blot) [1, 16]: enhanced Akt phosphorylation at both 5 and 15 minutes
- Smad2 phosphorylation (western blot) [1, 16]: enhanced Smad2 phosphorylation was detected only 15 minutes after H-8 treatment
- IC50 [2]: 15 µM
- matrix mineralization (alizarin red staining) ([3]; 25 μM, day 10 of differentiation): enhanced matrix mineralization
- ALP activity ([3]; day 6 of osteoblastic differentiation): dose dependent enhancing effect
- hMSC survival in vivo (luminescent imaging) [4]: increased hMSC survival
- activated Caspase-3 (western blot), hMSC survival [5]: reduced level of activated Caspase-3
- heterotopic bone formation, cells pre-treated in vitro ([6]; hMSC-TERT treated 25 μM for 7 days, implanted subcutaneously, histology after 8 weeks): enhanced amount of heterotopic bone formation
- heterotopic bone formation, systemic treatment ([6]; intraperitoneally 30 mg/kg/day for 4 weeks after implantation of HA/TCP-hMSC-TERT): increased amount of heterotopic bone formation
- osteoclast formation (TRAP-positive multinucleated cells) [7]: did not affect osteoclast formation
- stage of differentiation at which H-8 is needed (matrix mineralization) ([8]; 25 μM added at different time points during 12-days period): needed during the first 9 days to exert its effects
- gene expression of osteogenic markers (qRT-PCR) ([8]; 25 μM, 9-days in vitro hMSC osteogenic differentiation): enhanced gene expression of early and late osteogenic markers
- ALP enhancing effect in serum free induction media ([8]; 25 μM, serum free induction media): persists in the absence of serum
- optimal concentration for highest enhancement of osteoblast differentiation of hMSC ([8]; based on in vitro studies): 20 to 30 µM
- dependence of ALP enhancing effect on differentiation inducers ([8]; each component of osteoblastic induction media removed): not dependent on differentiation inducers
- ALP activity ([8]; hMSC-TERT, OIM, dose range 1-30 μM, day 6, dose-dependent): significantly increased
- matrix mineralization (alizarin red staining) ([8]; hMSC-TERT, OIM, dose range 1-30 μM, day 12, dose-dependent): significantly increased
- osteoclastic acid secretion [9]: no effect on osteoclastic acid secretion
- adipocyte differentiation of hMSC [10]: does not affect adipocyte differentiation
- IC50 [11]: 0.48 µM
- IC50 [12]: 68 µM
- Relative ALP activity [13, 17]: 1.701
- Relative ALP activity [13, 18]: 1.87
- ALP activity ([14]; day 6, dose-dependent): significantly increased
- matrix mineralization (alizarin red staining) ([14]; day 12, dose-dependent): significantly increased
- necropsy, toxic effects [15]: all tissues looked normal

Molecule: NC(=O)c1ccc(-c2nc(-c3ccccn3)c(-c3ccc4c(c3)OCO4)[nH]2)cc1 [SB431542]
- effect on H-8 induced Smad2 and Akt phosphorylation [1]: abolished the enhancing effect of H-8 on Smad2 and Akt phosphorylation
- effect on H-8 enhanced osteoblast differentiation (ALP activity, matrix mineralization) ([8]; co-treatment with H-8, hMSC): blunted the enhancing effect of H-8 on osteoblast differentiation of hMSC

Molecule: Cc1cc2ncc(-c3ccccc3)nc2cc1C [Tyrphostin AG 1295]
- Relative ALP activity [13, 17]: 1.007
- Relative ALP activity [13, 18]: 0.3556

Molecule: COc1cc2ncnc(Nc3cccc(Cl)c3)c2cc1OC [Tyrphostin AG 1478]
- Relative ALP activity [13, 17]: 1.097
- Relative ALP activity [13, 18]: Toxic

Molecule: N#CC(=C(/N)Sc1ccccc1N)/C(C#N)=C(\N)Sc1ccccc1N [U-0126]
- Relative ALP activity [13]: 0.3485 and 0.281

Molecule: COC[C@H]1OC(=O)c2coc3c2[C@@]1(C)C1=C(C3=O)[C@@H]2CCC(=O)[C@@]2(C)C[C@H]1OC(C)=O [Wortmannin]
- Relative ALP activity [13, 17]: 0.8301
- Relative ALP activity [13, 18]: 0.9122

Molecule: C[C@@H](N)[C@H]1CC[C@H](C(=O)Nc2ccncc2)CC1 [Y-27632]
- Relative ALP activity [13, 17]: 0.9848
- Relative ALP activity [13, 18]: 0.4092

Molecule: Cc1ccc(NC(=O)c2cccc(N(C)C)c2)cc1NC(=O)c1ccc(O)cc1 [ZM 336372]
- Relative ALP activity [13, 17]: 0.869
- Relative ALP activity [13, 18]: 0.5373

Molecule: C=CC(=O)c1ccc2ccccc2c1 [ZM 449829]
- Relative ALP activity [13, 17]: 0.9444
- Relative ALP activity [13, 18]: 0.8946

Molecule: Cn1cnc2nc(NCCO)nc(NCc3ccccc3)c21 [iso-Olomoucine]
- Relative ALP activity [13, 17]: 1.084
- Relative ALP activity [13, 18]: 0.9318

Molecule: BML-265
- Relative ALP activity [13, 17]: 0.3954
- Relative ALP activity [13, 18]: Toxic

Molecule: Indirubin-3′-monoxime
- Relative ALP activity [13, 17]: 0.2589
- Relative ALP activity [13, 18]: 0.3697

B1: TGFβ3: Transforming growth factor β3, added to hMSC together with H-8 (protein, UniProt P10600 301-412, looked up)
Transforming growth factor …: ALDTNYCFRNLEENCCVRPLYIDFRQDLGWKWVHEPKGYYANFCSGPCPYLRSADTTHSTVLGLYNTLNPEASASPCCVPQDLEPLTILYYVGRTPKVEQLSNMVVKSCKCS
- effect on H-8 induced Smad2 and Akt phosphorylation [1]: enhancing effect on H-8 induced Akt and Smad2 phosphorylation
